Results reported in patent US20180368427A1, “Method of Reducing Spoilage in Harvested Produce During Storage and Shipping” (Apeel Technology, Inc., priority 2016, published 2018).

System: strawberries
Assay: Average daily mass loss rate of coated strawberries stored at low relative humidity
Conditions: over 4 days, 10 mg/mL in ethanol, spray coated, 23-27° C., 40-55% humidity (FIG. 7A), listed as pure PA-2G formulation (712)
Procedure: FIG. 7A is a graph showing average daily mass loss rates for coated and uncoated harvested strawberries stored at low relative humidity levels for 4 days. The coating agents included various mixtures of PA-1G and PA-2G, as detailed below. Each bar in the graph represents average daily mass loss rates for a group of 15 strawberries. The strawberries corresponding to bar 702 were untreated (control group). The strawberries corresponding to bar 704 were treated with a solution for which the coating agent was substantially pure PA-1G. The strawberries corresponding to bar 706 were treated with a solution for which the coating agent was 75% PA-1G and 25% PA-2G by mass. The strawberries corresponding to bar 708 were treated with a solution for which the coating agent was 50% PA-1G and 50% PA-2G by mass. The strawberries corresponding to bar 710 were treated with a solution for which the coating agent was 25% PA-1G and 75% PA-2G by mass. The strawberries corresponding to bar 712 were treated with a solution for which the coating agent was substantially pure PA-2G. […] FIG. 7A is a graph showing average daily mass loss rates, measured over the course of 4 days, of the untreated strawberries and of the strawberries coated with one of the five solutions described above. […]

## CCCCCCCCCCCCCCCC(=O)OC(CO)CO [PA-2G, 1,3-dihydroxypropan-2-yl palmitate]
  average daily mass loss rate: 6.1%
